Patent publication US10570122B2, “Compounds with anti-tumoral activity” (AB Science, priority 2015, dated 2020)

Assays:
CALU6 = assay: CellTiter-Blue cell-based survival/proliferation assay, CALU6; conditions: Homo sapiens, Calu-6; CALU6 lung tumor cell line, 48 h
Procedure, shortened: (§1)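 Compounds, diluted tenfold serially over 0–10 μM, are applied to 1·10^4 seeded cells per well for 48 h at 37 °C. Resorufin formed during a further 4 h with CellTiter-Blue is detected by fluorescence emission at 590 nm.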

MDAMB231 = assay: CellTiter-Blue cell-based survival/proliferation assay, MDAMB231; conditions: Homo sapiens, MDA-MB-231; MDAMB231 breast tumor cell line, 48 h
Procedure, shortened: as §1

TOV112D = assay: CellTiter-Blue cell-based survival/proliferation assay, TOV112D; conditions: Homo sapiens; TOV112D ovary tumor cell line, 48 h
Procedure, shortened: as §1

OPM2 = assay: CellTiter-Blue cell-based survival/proliferation assay, OPM2; conditions: Homo sapiens, OPM-2, Myeloma cell line OPM2, 48 h, read-out: Anti-tumoral activity (measured IC50) OPM2
Procedure, shortened: as §1

HL60 = assay: CellTiter-Blue cell-based survival/proliferation assay, HL60; conditions: Homo sapiens, HL-60, Leukemia cell line HL60, 48 h, read-out: Anti-tumoral activity (measured IC50) HL60
Procedure, shortened: as §1

PC3 = assay: CellTiter-Blue cell-based survival/proliferation assay, PC3; conditions: Homo sapiens, PC-3; PC3 prostate tumor cell line, 48 h
Procedure, shortened: as §1

ACHN = assay: CellTiter-Blue cell-based survival/proliferation assay, ACHN; conditions: Homo sapiens; ACHN kidney tumor cell line, 48 h
Procedure, shortened: as §1

HGC27 = assay: CellTiter-Blue cell-based survival/proliferation assay, HGC27; conditions: Homo sapiens, HGC-27; HGC27 stomach tumor cell line, 48 h
Procedure, shortened: as §1

HEP2 = assay: CellTiter-Blue cell-based survival/proliferation assay, HEP2; conditions: Homo sapiens, HEp-2; HEP2 head & neck tumor cell line, 48 h
Procedure, shortened: as §1

HEPG2 = assay: CellTiter-Blue cell-based survival/proliferation assay, HEPG2; conditions: Homo sapiens; HEPG2 liver tumor cell line, 48 h
Procedure, shortened: as §1

AGS = assay: CellTiter-Blue cell-based survival/proliferation assay, AGS; conditions: Homo sapiens; AGS stomach tumor cell line, 48 h
Procedure, shortened: as §1

A549 = assay: CellTiter-Blue cell-based survival/proliferation assay, A549; conditions: Homo sapiens; A549 lung tumor cell line, 48 h
Procedure, shortened: as §1

[1] = system: panel of about 34 human tumor cell lines; assay: Cell-based proliferation screening on panel of tumor cell lines; conditions: solid tumor cell line, cell line unknown, 48 h, read-out: IC50, solid tumor cell line of column 6 (last section of Table 3)
Procedure, shortened: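 CellTiter-Blue survival assay with 1·10^4 cells/well, each line treated 48 h at 37° C with 1/10 serial dilutions from 0 to 10 μM. Resorufin formed during a 4 h reagent incubation is read by fluorescence at 590 nm. A cell-free blank serves as background.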

PANC1 = assay: CellTiter-Blue cell-based survival/proliferation assay, PANC1; conditions: Homo sapiens, PANC-1; PANC_1 pancreas tumor cell line, 48 h
Procedure, shortened: as §1

H1299 = assay: CellTiter-Blue cell-based survival/proliferation assay, H1299; conditions: Homo sapiens, NCI-H1299; H1299 lung tumor cell line, 48 h
Procedure, shortened: as §1

PLCPRF5 = assay: CellTiter-Blue cell-based survival/proliferation assay, PLCPRF5; conditions: Homo sapiens, PLC-PRF-5; PLC_PRF5 liver tumor cell line, 48 h
Procedure, shortened: as §1

SW579 = assay: CellTiter-Blue cell-based survival/proliferation assay, SW579; conditions: Homo sapiens; SW579 head & neck tumor cell line, 48 h
Procedure, shortened: as §1

A498 = assay: CellTiter-Blue cell-based survival/proliferation assay, A498; conditions: Homo sapiens; A498 kidney tumor cell line, 48 h
Procedure, shortened: as §1

KARPAS299 = assay: CellTiter-Blue cell-based survival/proliferation assay, KARPAS299; conditions: Homo sapiens, KARPAS-299, Lymphoma cell line KARPAS299, 48 h, read-out: Anti-tumoral activity (measured IC50) KARPAS299
Procedure, shortened: as §1

CLS354 = assay: CellTiter-Blue cell-based survival/proliferation assay, CLS354; conditions: Homo sapiens, CLS-354; CLS354_4 head & neck tumor cell line, 48 h
Procedure, shortened: as §1

BT20 = assay: CellTiter-Blue cell-based survival/proliferation assay, BT20; conditions: Homo sapiens, BT-20; BT20 breast tumor cell line, 48 h
Procedure, shortened: as §1

REC1 = assay: CellTiter-Blue cell-based survival/proliferation assay, REC1; conditions: Homo sapiens, Lymphoma cell line REC1, 48 h, read-out: Anti-tumoral activity (measured IC50) REC1
Procedure, shortened: as §1

BXPC3 = assay: CellTiter-Blue cell-based survival/proliferation assay, BXPC3; conditions: Homo sapiens, BXPC-3; BXPC3 pancreas tumor cell line, 48 h
Procedure, shortened: as §1

DLD1 = assay: CellTiter-Blue cell-based survival/proliferation assay, DLD1; conditions: Homo sapiens, DLD-1; DLD_1 colorectal tumor cell line, 48 h
Procedure, shortened: as §1

MESSA = assay: CellTiter-Blue cell-based survival/proliferation assay, MESSA; conditions: Homo sapiens, MES-SA; MESSA ovary tumor cell line, 48 h
Procedure, shortened: as §1

DU145 = assay: CellTiter-Blue cell-based survival/proliferation assay, DU145; conditions: Homo sapiens, DU-145; DU145 prostate tumor cell line, 48 h
Procedure, shortened: as §1

HCT116 = assay: CellTiter-Blue cell-based survival/proliferation assay, HCT116; conditions: Homo sapiens, HCT-116; HCT116 colorectal tumor cell line, 48 h
Procedure, shortened: as §1

HUT78 = assay: CellTiter-Blue cell-based survival/proliferation assay, HUT78; conditions: Homo sapiens, Lymphoma cell line HUT78, 48 h, read-out: Anti-tumoral activity (measured IC50) HUT78
Procedure, shortened: as §1

| SMILES | IC50 (CALU6) [nM] | IC50 (MDAMB231) [nM] | IC50 (TOV112D) [nM] | IC50 (OPM2) [nM] | IC50 (HL60) [nM] | IC50 (PC3) [nM] | IC50 (ACHN) [nM] | IC50 (HGC27) [nM] | IC50 (HEP2) [nM] | IC50 (HEPG2) [nM] | IC50 (AGS) [nM] | IC50 (A549) [nM] | IC50 [1] [nM] | IC50 (PANC1) [nM] | IC50 (H1299) [nM] | IC50 (PLCPRF5) [nM] | IC50 (SW579) [nM] | IC50 (A498) [nM] | IC50 (KARPAS299) [nM] | IC50 (CLS354) [nM] | further results |
| --- | --- | --- | --- | --- | --- | --- | --- | --- | --- | --- | --- | --- | --- | --- | --- | --- | --- | --- | --- | --- | --- |
| CCOCc1ccc(C)c(Nc2ncc(-c3ccc(-c4ccccn4)cc3)o2)c1 [Example 048, (5-Ethoxymethyl-2-methyl-phenyl)-[5-(4-pyridin-2-yl-phenyl)-oxazol-2-yl]-amine] | > 1000 | > 1000 | > 1000 | 500 to 1000 | 100 to 500 | > 1000 | > 1000 | > 1000 | > 1000 | > 1000 | > 1000 | > 1000 | 500 to 1000 | > 1000 | > 1000 | > 1000 | > 1000 | > 1000 | 500 to 1000 | 500 to 1000 | IC50 (BT20): > 1000 nM; IC50 (REC1): 500 to 1000 nM; IC50 (BXPC3): > 1000 nM; IC50 (DLD1): > 1000 nM; IC50 (MESSA): > 1000 nM; IC50 (DU145): > 1000 nM; IC50 (HCT116): > 1000 nM; IC50 (HUT78): 500 to 1000 nM |
| COc1ccc(C)c(Nc2ncc(-c3ccc(-n4cccn4)cc3)o2)c1 [Example 023, (5-Methoxy-2-methyl-phenyl)-[5-(4-pyrazol-1-yl-phenyl)-oxazol-2-yl]-amine] | > 1000 | > 1000 | > 1000 | 100 to 500 | 100 to 500 | > 1000 | > 1000 | > 1000 | > 1000 | > 1000 | > 1000 | > 1000 | 100 to 500 | > 1000 | > 1000 | > 1000 | > 1000 | > 1000 | 100 to 500 | 100 to 500 | IC50 (BT20): > 1000 nM; IC50 (REC1): 100 to 500 nM; IC50 (BXPC3): > 1000 nM; IC50 (DLD1): > 1000 nM; IC50 (MESSA): > 1000 nM; IC50 (DU145): > 1000 nM; IC50 (HCT116): > 1000 nM; IC50 (HUT78): 100 to 500 nM |
| CCOCc1ccc(C)c(Nc2ncc(-c3ccc(-n4nccn4)cc3)o2)c1 [Example 036, (5-Ethoxymethyl-2-methyl-phenyl)-[5-(4-[1,2,3]triazol-2-yl-phenyl)-oxazol-2-yl]-amine] | 500 to 1000 | > 1000 | ≤ 100 | 100 to 500 | 100 to 500 | 100 to 500 | 100 to 500 | ≤ 100 | 100 to 500 | 100 to 500 | ≤ 100 | > 1000 | 100 to 500 | > 1000 | 500 to 1000 | > 1000 | > 1000 | > 1000 | ≤ 100 | ≤ 100 | IC50 (BT20): 500 to 1000 nM; IC50 (REC1): ≤ 100 nM; IC50 (BXPC3): > 1000 nM; IC50 (DLD1): > 1000 nM; IC50 (MESSA): > 1000 nM; IC50 (DU145): > 1000 nM; IC50 (HCT116): > 1000 nM; IC50 (HUT78): ≤ 100 nM |
| CCOCc1cccc(Nc2ncc(-c3ccc(-n4cccn4)cc3)o2)c1 [Example 020, (3-Ethoxymethyl-phenyl)-[5-(4-pyrazol-1-yl-phenyl)-oxazol-2-yl]-amine] | > 1000 | 100 to 500 | > 1000 | ≤ 100 | ≤ 100 | ≤ 100 | > 1000 | > 1000 | > 1000 | > 1000 | > 1000 | > 1000 | ≤ 100 | > 1000 | > 1000 | > 1000 | > 1000 | > 1000 | ≤ 100 | ≤ 100 | IC50 (BT20): > 1000 nM; IC50 (REC1): ≤ 100 nM; IC50 (BXPC3): 500 to 1000 nM; IC50 (DLD1): 100 to 500 nM; IC50 (MESSA): > 1000 nM; IC50 (DU145): > 1000 nM; IC50 (HCT116): > 1000 nM; IC50 (HUT78): ≤ 100 nM |
| CCOCc1ccc(C)c(Nc2ncc(-c3ccc(-n4cc(C)cn4)cc3)o2)c1 [Example 040, (5-Ethoxymethyl-2-methyl-phenyl)-{5-[4-(4-methyl-pyrazol-1-yl)-phenyl]-oxazol-2-yl}-amine] | > 1000 | > 1000 | > 1000 | > 1000 | > 1000 | > 1000 | > 1000 | > 1000 | > 1000 | > 1000 | > 1000 | > 1000 | > 1000 | > 1000 | > 1000 | > 1000 | > 1000 | > 1000 | > 1000 | > 1000 | IC50 (BT20): > 1000 nM; IC50 (REC1): > 1000 nM; IC50 (BXPC3): > 1000 nM; IC50 (DLD1): > 1000 nM; IC50 (MESSA): > 1000 nM; IC50 (DU145): > 1000 nM; IC50 (HCT116): > 1000 nM; IC50 (HUT78): > 1000 nM |
